These results are taken from patent EP1392697B1, “ANTIDEPRESSANT AZAHETEROCYCLYMETHYL DERIVATIVES OF 2,3-DIHYDRO-1,4-DIOXINO 2,3-F]QUINOLINE” (Wyeth, priority 2001, dated 2002).

Test [1] has as its target cloned human 5HT1A receptors. Kind of test: 35S-GTPγS binding assay, 5HT1A antagonist activity. It counts as biochemical. The settings on record: reversal of the effects of the standard agonist 8-OH-DPAT, read-out: 5HT1A Function IC50. An excerpt:
Agonists produce an increase in binding whereas antagonists produce no increase but rather reverse the effects of the standard agonist 8-OH-DPAT. The test compound's maximum inhibitory effect is represented as the Imax, while its potency is defined by the IC50.
In general terms: Binding of GTPγS marks nucleotide exchange on a G protein.

Test [2] concerns the target serotonin transporter. The experiment in a line: 3H-paroxetine displacement binding, serotonin transporter affinity. Particulars: displacement of 3H-paroxetine from male rat frontal cortical membranes; read-out: 5-HT Transporter Affinity KI.
In test [3] the target is human 5HT1A receptors. Kind of test: [3H] 8-OH-DPAT displacement binding, 5HT1A receptor affinity. Particulars: displacement of [3H] 8-OH-DPAT; CHO cells stably transfected with human 5HT1A receptors. The source says: 8-OH-DPAT (dipropylamino-tetralin) from the 5HT1A serotonin receptor following a modification of the procedure of Hall et al., J. Neurochem.
For orientation: In a radioligand displacement assay an active substance lowers the binding of a labelled ligand.

With `CCc1cccc2c(CC3CCN(CC4COc5ccc6nc(C)ccc6c5O4)CC3)c[nH]c12` (stereo not drawn) [Example 19, 2-({4-[(7-Ethyl-1H-indol-3-yl)methyl]piperidin-1-yl}methyl)-8-methyl-2,3-dihydro[1,4]dioxino[2,3-f]quinoline], the IC50 in test [1] was found to be 169 nM. Further, the Ki in test [2] is 11 nM; in test [3], 7.38 nM.
The corresponding values for `Cc1ccc2c3c(ccc2n1)OCC(CN1CCC(Cc2c[nH]c4cc(Cl)ccc24)CC1)O3` (stereo not drawn) [Example 20, 2-({4-[(6-Chloro-1H-indol-3-yl)methyl]piperidin-1-yl}methyl)-8-methyl-2,3-dihydro[1,4]dioxino[2,3-f]quinoline] are 666 nM, 7 nM and 25.4 nM.

By IC50 is commonly meant the midpoint of a concentration-inhibition curve. As usually defined, the Ki is a measure of affinity in units of concentration, obtained from inhibition or displacement.
